Test results reported in article PMC4858680, “A platinum-based hybrid drug design approach to circumvent acquired resistance to molecular targeted tyrosine kinase inhibitors” (Scientific Reports, 2016).
Like-named read-outs stand apart in the source and are kept apart here.

Assays:
FGFR2 = FGFR2 (Homo sapiens, UniProt P21802); conditions: 10 μM
FLT4 = FLT4 (Homo sapiens, UniProt P35916); conditions: 10 μM
MST1R = molecular target: T1, MST1R (Homo sapiens, UniProt Q04912); assay type: binding; conditions: 10 μM
T1 construct: purchased DiscoveRx KINOMEscan

KIT = KIT (Homo sapiens, UniProt P10721); conditions: 10 μM
EPHA1 = molecular target: T2, EPHA1 (Homo sapiens, UniProt P21709); conditions: 10 μM
T2 sequence (P21709 26-976): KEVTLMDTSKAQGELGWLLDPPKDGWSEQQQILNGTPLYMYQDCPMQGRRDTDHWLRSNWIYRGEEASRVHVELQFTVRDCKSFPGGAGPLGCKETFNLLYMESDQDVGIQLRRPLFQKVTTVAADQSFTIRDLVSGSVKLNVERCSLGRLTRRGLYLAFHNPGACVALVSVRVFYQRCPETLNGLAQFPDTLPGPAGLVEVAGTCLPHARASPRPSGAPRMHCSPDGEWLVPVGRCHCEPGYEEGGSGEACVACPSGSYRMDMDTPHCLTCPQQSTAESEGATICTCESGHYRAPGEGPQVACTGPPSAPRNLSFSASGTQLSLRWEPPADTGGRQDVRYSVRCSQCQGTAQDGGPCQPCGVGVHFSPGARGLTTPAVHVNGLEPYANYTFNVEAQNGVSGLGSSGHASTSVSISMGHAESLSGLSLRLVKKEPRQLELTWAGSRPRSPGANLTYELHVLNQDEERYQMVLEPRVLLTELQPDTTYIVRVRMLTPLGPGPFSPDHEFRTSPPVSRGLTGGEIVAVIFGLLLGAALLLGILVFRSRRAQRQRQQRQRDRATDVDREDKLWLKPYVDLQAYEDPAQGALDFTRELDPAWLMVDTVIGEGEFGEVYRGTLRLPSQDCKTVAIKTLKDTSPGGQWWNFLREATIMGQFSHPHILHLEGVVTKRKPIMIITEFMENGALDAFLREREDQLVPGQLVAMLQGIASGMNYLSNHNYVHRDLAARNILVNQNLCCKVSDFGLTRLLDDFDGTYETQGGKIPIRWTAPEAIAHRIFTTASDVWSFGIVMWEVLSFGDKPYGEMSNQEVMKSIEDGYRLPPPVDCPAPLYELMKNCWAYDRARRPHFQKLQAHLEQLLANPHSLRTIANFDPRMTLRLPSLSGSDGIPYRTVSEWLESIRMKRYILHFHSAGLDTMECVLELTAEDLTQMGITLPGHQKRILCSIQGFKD

EPHB6 = molecular target: T3, EPHB6 (Homo sapiens, UniProt O15197); conditions: 10 μM
T3 sequence (O15197 32-1021): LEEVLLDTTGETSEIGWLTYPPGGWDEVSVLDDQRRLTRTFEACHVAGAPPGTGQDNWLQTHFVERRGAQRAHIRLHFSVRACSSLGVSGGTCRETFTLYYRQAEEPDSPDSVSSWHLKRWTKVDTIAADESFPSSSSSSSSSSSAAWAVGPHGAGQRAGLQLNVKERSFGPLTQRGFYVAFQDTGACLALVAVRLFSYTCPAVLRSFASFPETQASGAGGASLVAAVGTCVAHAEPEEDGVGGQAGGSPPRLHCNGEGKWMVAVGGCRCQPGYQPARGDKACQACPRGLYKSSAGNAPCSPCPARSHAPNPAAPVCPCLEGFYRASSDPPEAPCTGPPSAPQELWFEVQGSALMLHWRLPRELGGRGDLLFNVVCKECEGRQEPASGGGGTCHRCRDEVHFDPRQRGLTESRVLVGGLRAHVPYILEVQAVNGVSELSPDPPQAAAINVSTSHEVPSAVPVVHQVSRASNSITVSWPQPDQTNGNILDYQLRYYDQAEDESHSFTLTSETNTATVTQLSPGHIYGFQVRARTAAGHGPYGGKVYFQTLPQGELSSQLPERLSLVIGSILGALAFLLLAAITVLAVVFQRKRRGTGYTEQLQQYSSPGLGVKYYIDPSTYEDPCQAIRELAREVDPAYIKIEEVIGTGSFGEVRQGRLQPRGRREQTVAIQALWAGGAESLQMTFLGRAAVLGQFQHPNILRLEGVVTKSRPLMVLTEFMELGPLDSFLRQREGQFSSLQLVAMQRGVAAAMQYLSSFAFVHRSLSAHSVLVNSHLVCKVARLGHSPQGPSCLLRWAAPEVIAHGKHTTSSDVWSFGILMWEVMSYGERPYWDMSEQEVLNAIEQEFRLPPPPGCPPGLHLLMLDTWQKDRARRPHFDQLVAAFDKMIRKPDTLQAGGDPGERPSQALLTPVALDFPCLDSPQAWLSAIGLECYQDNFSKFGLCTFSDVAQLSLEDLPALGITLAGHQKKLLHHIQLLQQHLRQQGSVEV

FLT3(K663D) = molecular target: T4, FLT3(K663D) (Homo sapiens, UniProt P36888, K663Q)
T4 sequence (P36888 564-993 K663Q limits assumed): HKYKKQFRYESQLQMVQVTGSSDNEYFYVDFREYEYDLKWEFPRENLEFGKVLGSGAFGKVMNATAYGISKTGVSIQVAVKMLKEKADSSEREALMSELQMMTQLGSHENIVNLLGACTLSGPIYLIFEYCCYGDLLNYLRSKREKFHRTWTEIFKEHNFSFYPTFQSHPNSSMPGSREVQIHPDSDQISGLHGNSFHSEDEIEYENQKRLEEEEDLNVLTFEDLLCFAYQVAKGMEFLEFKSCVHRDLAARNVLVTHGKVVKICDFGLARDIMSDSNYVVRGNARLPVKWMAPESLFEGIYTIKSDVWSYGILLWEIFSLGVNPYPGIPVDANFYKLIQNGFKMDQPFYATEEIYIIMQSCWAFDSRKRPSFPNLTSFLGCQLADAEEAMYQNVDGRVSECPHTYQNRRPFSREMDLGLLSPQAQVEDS

DDR1 = molecular target: T5, DDR1 (Homo sapiens, UniProt Q08345); assay type: binding; conditions: for Percent control: 10 μM
T5 construct: purchased DiscoveRx KINOMEscan

EPHA5 = EPHA5 (Homo sapiens, UniProt P54756); assay: biochemical; conditions: read-out: Percent control
PDGFRA = PDGFRA (Homo sapiens, UniProt P16234); assay: biochemical; conditions: read-out: Percent control

T5 sequence (Q08345 19-913): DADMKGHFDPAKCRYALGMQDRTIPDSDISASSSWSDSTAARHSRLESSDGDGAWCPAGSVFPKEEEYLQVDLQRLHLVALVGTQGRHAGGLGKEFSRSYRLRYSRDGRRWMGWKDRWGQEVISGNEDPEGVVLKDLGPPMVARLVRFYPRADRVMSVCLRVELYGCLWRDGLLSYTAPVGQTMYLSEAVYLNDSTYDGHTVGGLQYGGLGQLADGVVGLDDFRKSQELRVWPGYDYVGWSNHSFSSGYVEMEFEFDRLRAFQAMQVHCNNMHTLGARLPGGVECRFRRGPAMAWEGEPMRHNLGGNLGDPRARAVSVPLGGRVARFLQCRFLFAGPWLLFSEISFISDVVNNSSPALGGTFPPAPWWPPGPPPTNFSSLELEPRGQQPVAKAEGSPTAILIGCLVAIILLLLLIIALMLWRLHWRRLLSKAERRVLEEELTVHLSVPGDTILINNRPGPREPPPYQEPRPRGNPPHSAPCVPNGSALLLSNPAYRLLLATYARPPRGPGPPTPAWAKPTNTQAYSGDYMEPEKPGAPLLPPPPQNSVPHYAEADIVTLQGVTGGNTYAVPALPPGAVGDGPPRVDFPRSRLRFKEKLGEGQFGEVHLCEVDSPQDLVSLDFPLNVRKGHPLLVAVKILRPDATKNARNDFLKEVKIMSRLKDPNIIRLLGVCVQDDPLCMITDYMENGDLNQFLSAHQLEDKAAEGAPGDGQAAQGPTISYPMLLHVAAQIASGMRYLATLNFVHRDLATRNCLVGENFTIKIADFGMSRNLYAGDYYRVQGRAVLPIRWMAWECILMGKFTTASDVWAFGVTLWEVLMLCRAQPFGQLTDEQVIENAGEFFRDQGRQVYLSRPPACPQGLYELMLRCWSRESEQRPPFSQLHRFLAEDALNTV
FLT4, sequence (P35916 25-1363): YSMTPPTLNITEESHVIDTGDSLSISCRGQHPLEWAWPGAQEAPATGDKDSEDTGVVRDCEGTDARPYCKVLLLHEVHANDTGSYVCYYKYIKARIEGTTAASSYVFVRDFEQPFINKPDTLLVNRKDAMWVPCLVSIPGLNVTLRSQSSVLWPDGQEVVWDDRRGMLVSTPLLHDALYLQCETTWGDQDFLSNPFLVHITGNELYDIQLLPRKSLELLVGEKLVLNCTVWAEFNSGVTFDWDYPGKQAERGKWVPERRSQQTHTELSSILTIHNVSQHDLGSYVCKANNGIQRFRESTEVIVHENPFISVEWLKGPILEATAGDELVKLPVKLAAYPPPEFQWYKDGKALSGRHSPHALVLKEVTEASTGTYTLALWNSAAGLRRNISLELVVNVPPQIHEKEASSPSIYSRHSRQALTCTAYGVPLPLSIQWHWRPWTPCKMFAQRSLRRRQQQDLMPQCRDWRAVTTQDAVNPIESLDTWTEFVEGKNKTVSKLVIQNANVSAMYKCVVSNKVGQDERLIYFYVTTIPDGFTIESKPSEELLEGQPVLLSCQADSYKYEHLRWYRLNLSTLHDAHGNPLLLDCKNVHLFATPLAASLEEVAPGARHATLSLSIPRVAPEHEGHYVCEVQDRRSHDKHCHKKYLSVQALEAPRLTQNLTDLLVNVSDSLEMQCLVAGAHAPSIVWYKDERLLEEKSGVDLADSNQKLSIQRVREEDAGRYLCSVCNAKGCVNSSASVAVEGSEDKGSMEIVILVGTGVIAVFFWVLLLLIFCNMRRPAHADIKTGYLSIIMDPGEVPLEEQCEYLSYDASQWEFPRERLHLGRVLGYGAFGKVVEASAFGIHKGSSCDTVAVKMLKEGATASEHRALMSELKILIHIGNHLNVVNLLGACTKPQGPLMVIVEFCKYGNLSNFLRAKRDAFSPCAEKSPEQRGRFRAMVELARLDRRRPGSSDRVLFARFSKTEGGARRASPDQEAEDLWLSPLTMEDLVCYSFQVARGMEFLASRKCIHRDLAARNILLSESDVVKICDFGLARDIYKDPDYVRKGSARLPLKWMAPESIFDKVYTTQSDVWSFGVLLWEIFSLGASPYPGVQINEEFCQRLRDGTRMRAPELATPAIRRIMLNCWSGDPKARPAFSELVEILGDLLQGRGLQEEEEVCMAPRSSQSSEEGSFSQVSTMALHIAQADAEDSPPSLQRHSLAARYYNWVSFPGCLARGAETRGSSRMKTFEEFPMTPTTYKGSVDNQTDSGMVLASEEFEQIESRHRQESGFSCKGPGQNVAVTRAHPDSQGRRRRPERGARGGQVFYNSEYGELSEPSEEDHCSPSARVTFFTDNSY
FGFR2, sequence (P21802 22-821): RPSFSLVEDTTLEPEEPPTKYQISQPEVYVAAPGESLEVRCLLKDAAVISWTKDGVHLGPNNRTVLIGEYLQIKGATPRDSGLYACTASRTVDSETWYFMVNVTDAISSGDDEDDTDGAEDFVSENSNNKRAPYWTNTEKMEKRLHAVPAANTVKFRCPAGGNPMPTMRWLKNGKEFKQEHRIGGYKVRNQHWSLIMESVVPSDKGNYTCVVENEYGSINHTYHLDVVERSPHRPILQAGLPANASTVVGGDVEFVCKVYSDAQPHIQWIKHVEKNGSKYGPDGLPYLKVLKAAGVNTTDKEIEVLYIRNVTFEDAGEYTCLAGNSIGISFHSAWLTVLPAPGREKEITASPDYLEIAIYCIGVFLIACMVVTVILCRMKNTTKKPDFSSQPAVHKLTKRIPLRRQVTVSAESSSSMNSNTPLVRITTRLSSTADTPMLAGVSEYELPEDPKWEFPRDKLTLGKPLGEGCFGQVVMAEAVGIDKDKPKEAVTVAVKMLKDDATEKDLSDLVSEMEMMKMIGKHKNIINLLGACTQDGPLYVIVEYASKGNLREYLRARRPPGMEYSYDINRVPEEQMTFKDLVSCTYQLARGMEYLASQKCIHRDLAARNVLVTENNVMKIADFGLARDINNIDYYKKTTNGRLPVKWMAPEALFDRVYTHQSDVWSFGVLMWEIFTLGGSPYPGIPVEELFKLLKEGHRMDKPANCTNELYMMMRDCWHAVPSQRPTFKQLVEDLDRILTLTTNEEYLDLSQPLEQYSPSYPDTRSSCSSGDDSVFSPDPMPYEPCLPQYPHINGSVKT
KIT, sequence (P10721 26-976): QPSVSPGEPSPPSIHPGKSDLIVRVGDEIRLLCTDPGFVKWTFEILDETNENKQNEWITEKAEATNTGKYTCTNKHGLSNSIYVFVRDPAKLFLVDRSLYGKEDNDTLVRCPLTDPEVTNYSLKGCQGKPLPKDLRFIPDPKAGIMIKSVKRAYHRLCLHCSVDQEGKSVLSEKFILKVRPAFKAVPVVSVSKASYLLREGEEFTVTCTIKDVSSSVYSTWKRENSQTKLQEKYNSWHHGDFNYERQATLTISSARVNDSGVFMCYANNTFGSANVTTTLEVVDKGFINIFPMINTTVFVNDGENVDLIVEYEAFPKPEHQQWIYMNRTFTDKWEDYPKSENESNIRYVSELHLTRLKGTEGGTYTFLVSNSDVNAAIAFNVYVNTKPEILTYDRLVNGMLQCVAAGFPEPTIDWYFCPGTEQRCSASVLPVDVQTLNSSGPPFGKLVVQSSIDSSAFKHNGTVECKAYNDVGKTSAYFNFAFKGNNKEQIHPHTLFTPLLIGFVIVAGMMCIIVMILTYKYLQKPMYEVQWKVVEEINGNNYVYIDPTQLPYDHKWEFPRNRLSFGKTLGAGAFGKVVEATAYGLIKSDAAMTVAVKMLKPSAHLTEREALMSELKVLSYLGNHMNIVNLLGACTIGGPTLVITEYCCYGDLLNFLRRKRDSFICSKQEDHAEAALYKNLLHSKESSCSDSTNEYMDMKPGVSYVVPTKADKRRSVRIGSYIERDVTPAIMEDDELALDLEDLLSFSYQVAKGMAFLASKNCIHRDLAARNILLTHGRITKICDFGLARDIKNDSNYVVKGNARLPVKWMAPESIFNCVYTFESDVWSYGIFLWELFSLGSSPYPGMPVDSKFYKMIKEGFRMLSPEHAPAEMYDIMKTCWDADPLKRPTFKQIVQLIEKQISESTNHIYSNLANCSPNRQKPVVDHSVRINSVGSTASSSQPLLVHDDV
EPHA5, sequence (P54756 25-1037): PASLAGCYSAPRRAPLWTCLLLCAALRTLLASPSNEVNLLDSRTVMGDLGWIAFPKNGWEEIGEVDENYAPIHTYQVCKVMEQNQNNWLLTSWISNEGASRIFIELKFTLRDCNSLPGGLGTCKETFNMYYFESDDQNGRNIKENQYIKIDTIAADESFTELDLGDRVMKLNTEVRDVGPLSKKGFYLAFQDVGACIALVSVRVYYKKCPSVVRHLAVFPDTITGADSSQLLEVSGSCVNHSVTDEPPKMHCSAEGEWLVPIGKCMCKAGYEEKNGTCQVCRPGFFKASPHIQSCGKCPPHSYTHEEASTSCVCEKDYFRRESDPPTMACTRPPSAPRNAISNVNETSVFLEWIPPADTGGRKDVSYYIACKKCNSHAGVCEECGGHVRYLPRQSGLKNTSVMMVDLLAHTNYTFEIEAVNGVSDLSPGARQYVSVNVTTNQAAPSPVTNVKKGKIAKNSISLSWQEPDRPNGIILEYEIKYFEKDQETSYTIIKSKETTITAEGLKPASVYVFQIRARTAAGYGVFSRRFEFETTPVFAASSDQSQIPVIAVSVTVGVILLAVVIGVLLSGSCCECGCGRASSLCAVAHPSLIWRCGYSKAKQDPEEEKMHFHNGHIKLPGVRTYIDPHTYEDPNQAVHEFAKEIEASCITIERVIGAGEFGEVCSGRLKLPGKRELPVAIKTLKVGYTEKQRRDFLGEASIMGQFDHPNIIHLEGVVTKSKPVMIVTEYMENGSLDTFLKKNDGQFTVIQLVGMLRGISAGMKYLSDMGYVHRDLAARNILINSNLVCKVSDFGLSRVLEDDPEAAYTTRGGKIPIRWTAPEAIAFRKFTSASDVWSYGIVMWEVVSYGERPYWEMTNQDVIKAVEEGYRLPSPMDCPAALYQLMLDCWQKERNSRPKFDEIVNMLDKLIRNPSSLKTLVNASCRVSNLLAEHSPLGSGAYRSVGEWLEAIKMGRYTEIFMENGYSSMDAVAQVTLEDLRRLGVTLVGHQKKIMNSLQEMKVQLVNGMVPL

Compound	Percent control (FGFR2) [%]	Percent control (FLT4) [%]	Percent control (MST1R) [%]	Percent control (KIT) [%]	Percent control (EPHA1) [%]	Percent control (EPHB6) [%]	Percent control (FLT3(K663D); FLT3(K663D), 10 μM) [%]	Percent control (DDR1) [%]	Percent control (FLT3(K663D))	remaining activity at 10 µM (EPHA5) [%]	remaining activity at 10 µM (PDGFRA) [%]	remaining binding at 10 µM (DDR1; read-out: Percent control) [%]
Cc1ccc(NC(=O)c2ccc(CN3CCN(C)CC3)cc2)cc1Nc1nccc(-c2cccnc2)[n+]1[Pt-2]1([Cl])[NH2+]C2CCCCC2[NH2+]1 (stereo not drawn) [1b, oxaliplatin-imatinib]	100	99	100	0.2	86	92	84					
C#Cc1cccc(Nc2c3cc(OCCOC)c(OCCOC)cc3nc[n+]2[Pt@SP2-2]([NH3+])([NH3+])[Cl])c1 [2a, cisplatin-erlotinib]	91	90	100	86	73	76		74	67			
COc1cc2c(Nc3ccc(Br)cc3F)[n+]([Pt-2]3([Cl])[NH2+]C4CCCCC4[NH2+]3)cnc2cc1OCC1CCN(C)CC1 (stereo not drawn) [3b, oxaliplatin-vandetanib]	67	14	100	1.1	11	2.5		0.3	43			
C#Cc1cccc(Nc2ncnc3cc(OCCOC)c(OCCOC)cc23)c1 [Erlotinib]										6.6	15.3	
Cc1ccc(NC(=O)c2ccc(CN3CCN(C)CC3)cc2)cc1Nc1nccc(-c2cccnc2)n1 [Imatinib, reference compound]	100	100	100		100	100	100			100	0.3	
COc1cc2c(Nc3ccc(Br)cc3F)ncnc2cc1OCC1CCN(C)CC1 [Vandetanib, reference compound]										2.3	2.2	0.1
